Experiments:
Format in all cases: in vivo
[1] = tested on: cardiomyocytes; assay: Cardiomyocyte proliferation effect assay (Edu), 13-month-old C57 mice; conditions: aged (13-month-old) female mice; IGF1-24 100 μg/kg for 7 days; PBS group 0.5%; FIG. 3
Protocol: (§1) Female 13-month-old mice were divided into 2 groups, PBS group and IGF1-24 group, with 6 mice in each group, and the mice in each group were distinguished by ear tags for subsequent protein injection according to the different body weights of the mice. The mice in each group were injected with PBS and IGF1-24 for 7 consecutive days, and the recombinant protein IGF1-24 was injected at 100 μg/kg. After seven days of protein injection, Edu solution at a concentration of […] was injected intraperitoneally for seven consecutive days, so that the final total dose of each mouse reached 50 mg/kg. […]

[2] = tested on: neuronal cells; assay: Neuroproliferation and neural differentiation (Edu / DCX, hippocampal dentate gyrus), 13-month-old C57 mice
Protocol: as §1
Remove frozen sections from −20° C. and restore to room temperature; wash 3 times 10 min/time with PBS; permeabilize sections in 0.5% Triton for 30 min; wash 3 times 10 min/time with PBS; draw circles around the tissue with an immunohistochemistry pen and add 5% BSA dropwise for 1 h; aspirate 5% BSA and incubate at 4° C. with double cortin DCX primary antibody (1:500) dropwise overnight; PBS wash 3 times for 10 min/time; incubate FITC secondary antibody for 1 h; PBS wash 3 times for 10 min/time; incubate Edu dye for 1 h; PBS wash 3 times for 10 min/time; incubate DAPI for 10 min; PBS wash 3 times for 10 min/time; observe fluorescence under fluorescence microscope. […]

[3] = tested on: skeletal muscle cells; assay: Skeletal muscle cell proliferation effect (Edu / Desmin immunofluorescence of gastrocnemius muscle), SD rats; conditions: gastrocnemius muscle sections, FIG. 8
Protocol: In certain embodiments, adult female SD rats were divided into five groups: PBS group, IGF1 group, IGF1Ec group, IGF1-24 group, and IGF1+IGF1Ec24 peptide group, with three rats in each group. The rats in each group were distinguished by ear clipping for subsequent protein injection according to the different body weights of the rats.
The rats in each group were injected with PBS, IGF1, IGF1Ec24 peptide, IGF1Ec and IGF1-24 for 7 consecutive days. Recombinant protein IGF1-24 was injected at 100 μg/kg, and the injection of the remaining proteins in each group was converted according to the molar amount of IGF1-24 injection as follows: 90 μg/kg for IGF1, 8.9 μg/kg for IGF1Ec24 peptide, 104 μg/kg for IGF1Ec.
After seven days of protein injection, the intraperitoneal injection of Edu solution at a concentration of 2.5 mg/kg was performed for seven days, so that the final total dose of each rat reached 50 mg/kg. […]

Substance: IGF1-24: 97 amino acids: amino-terminal 70 identical to IGF1, carboxyl-terminal 24 identical to IGFEc24 peptide, joined by three Gly linkers (SEQ ID NO: 4)
- number of Edu-positive cardiomyocytes [1]: 1.5%
- immature neuronal cells (neural differentiation assay) ([2]; PBS group 0.68%, FIG. 7): 1.01%
- proliferation of neuronal cells ([2]; hippocampal dentate gyrus, PBS group 0.24%, FIG. 5-6): 0.47%
- number of Edu-positive skeletal muscle cells per square millimeter [3]: 28 per square millimeter

— US20230073755A1, “USE OF IGF1 IN COMBINATION WITH IGFEC24 IN PREPARATION OF MEDICINE FOR PROMOTING TISSUE REPAIR AND REGENERATION” (Chongqing University, priority 2020, published 2023)
